The target in this experiment is T1, hTDO2 (Homo sapiens, UniProt P48775).
T1 construct: endogenous in cells; host or cells: A172 human brain glioblastoma cells (ATCC CRL-1620)
T1 sequence (P48775 whole entry): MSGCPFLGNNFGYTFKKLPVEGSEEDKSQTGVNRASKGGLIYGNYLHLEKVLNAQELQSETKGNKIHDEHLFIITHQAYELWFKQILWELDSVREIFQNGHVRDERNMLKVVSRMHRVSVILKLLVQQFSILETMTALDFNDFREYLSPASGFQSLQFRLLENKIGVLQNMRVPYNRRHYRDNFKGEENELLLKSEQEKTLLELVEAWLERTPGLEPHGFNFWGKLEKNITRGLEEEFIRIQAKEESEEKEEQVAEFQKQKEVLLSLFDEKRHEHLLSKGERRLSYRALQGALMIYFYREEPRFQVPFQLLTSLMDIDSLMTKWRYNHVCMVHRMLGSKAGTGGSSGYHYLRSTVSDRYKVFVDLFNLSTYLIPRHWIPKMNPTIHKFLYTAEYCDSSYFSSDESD
Put plainly: Cellular assay for TDO2 activity determination in A172 cells. It is filed as cell-based. As to conditions: human glioblastoma A172 cells naturally expressing hTDO2; overnight incubation; kynurenine by absorbance at 480 nm. In a few lines:
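A172 glioblastoma cells endogenously expressing hTDO2, 1.25×10^4 cells/well, incubated overnight at 37 °C, 5% CO2 in IMDM with 2% FBS and ten compound concentrations. Supernatant kynurenine measured after TCA treatment and Ehrlich's reagent (4-dimethylaminobenzaldehyde) by absorbance at 480 nm against a kynurenine standard curve, then curve-fitted.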
Regarding `CNC(=O)C(C)N1C(C)c2cc(-c3c[nH]c4cc(F)ccc34)ccc2S1(=O)=O` (single isomer, unassigned) [Example 147, 2-(5-(6-fluoro-1H-indol-3-yl)-3-methyl-1,1-dioxidobenzo[d]isothiazol-2(3H)-yl)-N-methylpropanamide], the IC50 (in general, the point on the concentration scale where inhibition reaches its midpoint) came out at 59 nM.

Turning to `CC1(C)NS(=O)(=O)c2ccc(-c3c[nH]c4cc(F)ccc34)cc21` [Example 5, 5-(6-fluoro-1H-indol-3-yl)-3,3-dimethyl-2,3-dihydrobenzo[d]isothiazole 1,1-dioxide], inhibition was half-maximal at 96 nM (IC50).

In the case of `CC(=O)N1CCC(N2C(C)c3cc(-c4c[nH]c5cc(F)ccc45)ccc3S2(=O)=O)CC1` (single isomer, unassigned; (-)) [Example 72, (−)-1-(4-(5-(6-fluoro-1H-indol-3-yl)-3-methyl-1,1-dioxidobenzo[d]isothiazol-2(3H)-yl)piperidin-1-yl)ethanone], the IC50 came to 64 nM. For `CC1c2cc(-c3c[nH]c4cc(F)ccc34)ccc2S(=O)(=O)N1CCC(N)=O` (single isomer, unassigned; (+)) [Example 47, (+)-3-(5-(6-fluoro-1H-indol-3-yl)-3-methyl-1,1-dioxidobenzo[d]isothiazol-2(3H)-yl)propanamide] the value was 199 nM. On to `O=S1(=O)c2ccc(-c3c[nH]c4cc(F)ccc34)cc2CN1C1CCNCC1` [Example 36, 5-(6-fluoro-1H-indol-3-yl)-2-(piperidin-4-yl)-2,3-dihydrobenzo[d]isothiazole 1,1-dioxide], for which the IC50 worked out at 192 nM. Consider `CC1c2cc(-c3c[nH]c4cc(F)ccc34)ccc2S(=O)(=O)N1Cc1ncn(C)n1` (single isomer, unassigned; (-)) [Example 85, (−)-5-(6-fluoro-1H-indol-3-yl)-3-methyl-2-((1-methyl-1H-1,2,4-triazol-3-yl)methyl)-2,3-dihydrobenzo[d]isothiazole 1,1-dioxide], for which the midpoint of inhibition, the IC50, lay at 57 nM. Turning to `CCOC(=O)NCCN1C(C)c2cc(-c3c[nH]c4cc(F)ccc34)ccc2S1(=O)=O` (single isomer, unassigned; (+)) [Example 110, (+)-ethyl (2-(5-(6-fluoro-1H-indol-3-yl)-3-methyl-1,1-dioxidobenzo[d]isothiazol-2(3H)-yl)ethyl)carbamate], the IC50 was 157 nM. In turn, `CC1c2cc(-c3c[nH]c4cc(F)ccc34)ccc2S(=O)(=O)N1CCO` (single isomer, unassigned; (+)) [Example 63, (+)-5-(6-fluoro-1H-indol-3-yl)-2-(2-hydroxyethyl)-3-methyl-2,3-dihydrobenzo[d]isothiazole 1,1-dioxide] returned an IC50 of 70 nM. Compound `O=S1(=O)c2ccc(-c3c[nH]c4cc(F)ccc34)cc2CN1C1CNC1` [Example 40, 2-(azetidin-3-yl)-5-(6-fluoro-1H-indol-3-yl)-2,3-dihydrobenzo[d]isothiazole 1,1-dioxide] came in with an IC50 of 859 nM. With `CN(C)CC1NS(=O)(=O)c2ccc(-c3c[nH]c4cc(F)ccc34)cc21` (single isomer, unassigned; (-)) [Example 25, (−)-3-((dimethylamino)methyl)-5-(6-fluoro-1H-indol-3-yl)-2,3-dihydrobenzo[d]isothiazole 1,1-dioxide], the IC50 was determined as 4980 nM. For `CNC(=O)C(CN1C(C)c2cc(-c3c[nH]c4cc(F)ccc34)ccc2S1(=O)=O)OC` (single isomer, unassigned; (+)) [Example 107, (+)-3-(5-(6-fluoro-1H-indol-3-yl)-3-methyl-1,1-dioxidobenzo[d]isothiazol-2(3H)-yl)-2-methoxy-N-methylpropanamide], inhibition was half-maximal at 499 nM (IC50). `CNC(=O)C(O)CN1C(C)c2cc(-c3c[nH]c4cc(F)ccc34)ccc2S1(=O)=O` (single isomer, unassigned; (+)) [Example 97, (+)-3-(5-(6-fluoro-1H-indol-3-yl)-3-methyl-1,1-dioxidobenzo[d]isothiazol-2(3H)-yl)-2-hydroxy-N-methylpropanamide] came in with an IC50 of 33 nM.

Consider `CCOC(=O)NCCN1C(C)c2cc(-c3c[nH]c4cc(F)ccc34)ccc2S1(=O)=O` (single isomer, unassigned; (-)) [Example 109, (−)-ethyl (2-(5-(6-fluoro-1H-indol-3-yl)-3-methyl-1,1-dioxidobenzo[d]isothiazol-2(3H)-yl)ethyl)carbamate], for which the IC50 stood at 345 nM. Consider `CNC(=O)CN1C(CO)c2cc(-c3c[nH]c4cc(F)ccc34)ccc2S1(=O)=O` (single isomer, unassigned; (-)) [Example 127, (−)-2-(5-(6-fluoro-1H-indol-3-yl)-3-(hydroxymethyl)-1,1-dioxidobenzo[d]isothiazol-2(3H)-yl)-N-methylacetamide], for which inhibition was half-maximal at 87 nM (IC50).

`CC1c2cc(-c3c[nH]c4cc(F)ccc34)ccc2S(=O)(=O)N1CCO` (single isomer, unassigned; (-)) [Example 64, (−)-5-(6-fluoro-1H-indol-3-yl)-2-(2-hydroxyethyl)-3-methyl-2,3-dihydrobenzo[d]isothiazole 1,1-dioxide] came in with an IC50 of 322 nM. The compound `CNC(=O)CN1C(C)c2cc(-c3c[nH]c4cc(F)ccc34)ccc2S1(=O)=O` (single isomer, unassigned; (+)) [Example 112, (+)-2-(5-(6-fluoro-1H-indol-3-yl)-3-methyl-1,1-dioxidobenzo[d]isothiazol-2(3H)-yl)-Nmethylacetamide] yielded an IC50 of 142 nM. Against the preceding compound, the IC50 is about 2.3-fold lower.

Compound `CNC(=O)C1NS(=O)(=O)c2ccc(-c3c[nH]c4cc(F)ccc34)cc21` (single isomer, unassigned; (+)) [Example 18, (+)-5-(6-fluoro-1H-indol-3-yl)-N-methyl-2,3-dihydrobenzo[d]isothiazole-3-carboxamide 1,1-dioxide] yielded an IC50 of 5000 nM. The compound `CS(=O)(=O)NCC1NS(=O)(=O)c2ccc(-c3c[nH]c4cc(F)ccc34)cc21` (single isomer, unassigned; (-)) [Example 139, (−)-N-((5-(6-fluoro-1H-indol-3-yl)-1,1-dioxido-2,3-dihydrobenzo[d]isothiazol-3-yl)methyl)methanesulfonamide] registered an IC50 of 520 nM.

As for `NC(=O)CCN1Cc2cc(-c3c[nH]c4cc(F)ccc34)ccc2S1(=O)=O` [Example 44, 3-(5-(6-fluoro-1H-indol-3-yl)-1,1-dioxidobenzo[d]isothiazol-2(3H)-yl)propanamide], it took 255 nM to reach half-maximal inhibition (IC50). `CNC(=O)C(O)CN1C(C)c2cc(-c3c[nH]c4cc(F)ccc34)ccc2S1(=O)=O` (single isomer, unassigned; (-)) [Example 100, (−)-3-(5-(6-fluoro-1H-indol-3-yl)-3-methyl-1,1-dioxidobenzo[d]isothiazol-2(3H)-yl)-2-hydroxy-N-methylpropanamide] yielded an IC50 of 33 nM. Next, `CNC(=O)C(C)N1C(C)c2cc(-c3c[nH]c4cc(F)ccc34)ccc2S1(=O)=O` (single isomer, unassigned; (+)) [Example 146, (+)-2-(5-(6-fluoro-1H-indol-3-yl)-3-methyl-1,1-dioxidobenzo[d]isothiazol-2(3H)-yl)-N-methylpropanamide]: 54 nM.

With `CNC(=O)C(N)CN1C(C)c2cc(-c3c[nH]c4cc(F)ccc34)ccc2S1(=O)=O` (single isomer, unassigned) [Example 101], the IC50 was 366 nM. As for `O=S1(=O)c2ccc(-c3c[nH]c4cc(F)ccc34)cc2CN1CCO` [Example 33, 5-(6-fluoro-1H-indol-3-yl)-2-(2-hydroxyethyl)-2,3-dihydrobenzo[d]isothiazole 1,1-dioxide], the IC50 turned out to be 89 nM. For the compound `CC1c2cc(-c3c[nH]c4cc(F)ccc34)ccc2S(=O)(=O)N1CCN1CCOC1=O` (single isomer, unassigned; (-)) [Example 70, (−)-3-(2-(5-(6-fluoro-1H-indol-3-yl)-3-methyl-1,1-dioxidobenzo[d]isothiazol-2(3H)-yl)ethyl)oxazolidin-2-one], the IC50 came to 50 nM. Compared with the last compound, the IC50 is about 1.8-fold lower. Next, `C[S+]([O-])CCN1Cc2cc(-c3c[nH]c4cc(F)ccc34)ccc2S1(=O)=O` (single isomer, unassigned; (+)) [Example 42, (+)-5-(6-fluoro-1H-indol-3-yl)-2-(2-(methylsulfinyl)ethyl)-2,3-dihydrobenzo[d]isothiazole 1,1-dioxide]: 142 nM. `CC1c2cc(-c3c[nH]c4cc(F)ccc34)ccc2S(=O)(=O)N1C[C@@H](O)CO` (single isomer, unassigned; (+)) [Example 94] gave an IC50 of 39 nM. In the case of `CC1c2cc(-c3c[nH]c4cc(F)ccc34)ccc2S(=O)(=O)N1CCN1CCNCC1=O` (single isomer, unassigned; (-)) [Example 65, (−)1-(2-(5-(6-fluoro-1H-indol-3-yl)-3-methyl-1,1-dioxidobenzo[d]isothiazol-2(3H)-yl)ethyl)piperazin-2-one], the IC50 stood at 546 nM. In the case of `CC1c2cc(-c3c[nH]c4cc(F)ccc34)ccc2S(=O)(=O)N1CC1(C)COC(=O)N1` (single isomer, unassigned; (+)) [Example 90, (+)-4-((5-(6-fluoro-1H-indol-3-yl)-3-methyl-1,1-dioxidobenzo[d]isothiazol-2(3H)-yl)methyl)-4-methyloxazolidin-2-one], the IC50 came to 358 nM. As to `CN(C)CCN1Cc2cc(-c3c[nH]c4cc(F)ccc34)ccc2S1(=O)=O` [Example 32, 2-(2-(dimethylamino)ethyl)-5-(6-fluoro-1H-indol-3-yl)-2,3-dihydrobenzo[d]isothiazole 1,1-dioxide], the IC50 is 230 nM. Next, `Cc1cc(O)n(CCN2C(C)c3cc(-c4c[nH]c5cc(F)ccc45)ccc3S2(=O)=O)n1` (single isomer, unassigned; (-)) [Example 68, (−)-5-(6-fluoro-1H-indol-3-yl)-2-(2-(5-hydroxy-3-methyl-1H-pyrazol-1-yl)ethyl)-3-methyl-2,3-dihydrobenzo[d]isothiazole 1,1-dioxide]: 3460 nM. `CC1c2cc(-c3c[nH]c4cc(F)ccc34)ccc2S(=O)(=O)N1C[C@H](O)CO` (single isomer, unassigned) [Example 95] came in with an IC50 of 114 nM.

For the origin of these results see patent US9873690B2, “3-indol substituted derivatives, pharmaceutical compositions and methods for use” (Pfizer Inc., priority 2015, dated 2018).
